Assay results published in patent US7553928B2, “Use of des-Aspartate-angiotensin I as an agent for the treatment and prevention of glomerulosclerosis and renal failure” (priority 2000, dated 2009).

Experiments:
normal rats = assay: Urine protein excretion in normal rats; assay type: in vivo, Sprague Dawley rats
Source text: Data were expressed as mean±SEM. […] The accepted level of significance was p<0.05.

⅚ nephrectomized rats = assay: Urine protein excretion in five-sixths nephrectomized (ablation proteinuric) rats; assay type: in vivo, Sprague Dawley rats; conditions: for 24-hour urinary excretion of protein, Weeks 9-16: 762 nmoles/kg/day orally for 8 weeks (weeks 9-16 post nephrectomy); for 24-hour urinary excretion of protein, Weeks 9-16 / 24-hour urinary excretion of protein, Weeks 1-8: mean ± SEM; for 24-hour urinary excretion of protein, Weeks 1-8: treatment group in weeks 1-8 post nephrectomy, before treatment started (baseline)
Procedure: nephrectomy was carried out as described by Morrison (11). Briefly, each animal was anaesthetized with 7% w/v chloral hydrate (0.4 g/kg, i.p.). An incision was made in the ventral abdominal wall to access the kidneys. Right nephrectomy was performed and the cranial and caudal third of the left kidney were cut off. Tissue adhesive (Histoccryl, B. Braun) was used to seal the cut ends of the left kidney and prevent bleeding. In this way 5⁄6 of the renal parenchyma was removed. This model results in focal and segmental glomerulosclerosis, resembling renal lesions in humans like oligomeganephronia, membranous nephropathy, minimal change nephritis, proliferative glomerulonephritis, analgesic nephropathy, diabetes mellitus, unilateral nephrectomy, cortical necrosis, and unilateral renal agenesis (9). Following the operation, each animal was placed in a metabolic cage for 24 hours once a week for a duration of 8 weeks. The 24-hour urine output and the concentration of protein in the urine were measured. After the 8th week, the animals were randomly divided into two groups (8 animals per group). Animals in one of the group (the treatment group) were orally administered 762 nmoles/kg/day of des-Asp-angiotensin I dissolved in 0.5 ml of saline via a 1-ml syringe with a blunted needle for a period of 8 weeks. The dose of 762 nmoles/kg/day was calculated based on the maximum effective oral anti-cardiac hypertrophic dose (250 nmole per rat of average weight of 328 g) in the original parent patent. Animals in the other group (the control group) were similarly administered with 0.5 ml of saline. Weekly measurement of 24-hour urine output and the concentration of protein in the urine in these animals were carried out for another 8 weeks. The protocol was designed based on our preliminary observation that urinary excretion of protein in the 5⁄6 nephrectomized rats commenced to increase above the normal value in 7th to 8th week post nephrectomy. A repeat of the experiment with 12 nephrectomized rats per group was carried out. Data were expressed as mean±SEM. […] The accepted level of significance was p<0.05.

des-Aspartate angiotensin I [des-Asp-angiotensin I]
24-hour urinary excretion of protein, Weeks 1-8 (normal rats; Table 4, normal rats, treatment group (762 nmoles/kg/day), 12 rats, mean ± SEM, saline control 18.7 ± 1.8): 16.1 ± 1.7 mg | 24-hour urinary excretion of protein, Weeks 9-16 (normal rats; Table 4, normal rats, treatment group (762 nmoles/kg/day), 12 rats, mean ± SEM, saline control 19.9 ± 2.2): 17.8 ± 1.1 mg | Effect on urinary excretion of protein in normal rats (normal rats; normal rats, oral dose of 762 nmoles/kg/day): no effect | 24-hour urinary excretion of protein, Weeks 9-16 (⅚ nephrectomized rats; Table 2, first experiment, 8 rats, saline control 37.2 ± 2.3, p = 0.024): *28.7 ± 2.5 mg | 24-hour urinary excretion of protein, Weeks 1-8 (⅚ nephrectomized rats; Table 2, first experiment, 8 rats): 16.4 ± 1.6 mg | 24-hour urinary excretion of protein, Weeks 9-16 (⅚ nephrectomized rats; Table 3, repeat experiment, 12 rats, saline control 51.7 ± 4.7, p = 0.048): *39.6 ± 3.3 mg | 24-hour urinary excretion of protein, Weeks 1-8 (⅚ nephrectomized rats; Table 3, repeat experiment, 12 rats): 19.9 ± 1.5 mg | Anti-proteinuric action (progressive development of proteinuria) (⅚ nephrectomized rats; ablation nephropathic rats, oral dose of 762 nmoles/kg/day): effective agent in attenuating the progressive development of proteinuria
